Test results from patent US11370798B2 (Vertex Pharmaceuticals Incorporated, priority 2012, dated 2022).

Tested on: HCT116 colorectal cancer cells
Experiment: Cisplatin sensitization assay (96 h cell viability MTS);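 note: Test-compound concentration that lowers the Cisplatin IC50 by a set fold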
Assay type: cell-based
Details: compound and Cisplatin added simultaneously, Cisplatin sensitization value
Protocol: Compounds can be screened for their ability to sensitize HCT116 colorectal cancer cells to Cisplatin using a 96 h cell viability (MTS) assay. […] Compounds and Cisplatin are then both added simultaneously to the cell media in 2-fold serial dilutions from a top final concentration of 10 μM as a full matrix of concentrations in a final cell volume of 200 μl, and the cells are then incubated at 37° C. in 5% CO2. After 96 h, 40 μl of MTS reagent (Promega G358a) is added to each well and the cells are incubated for 1 h at 37° C. in 5% CO2.
Compounds with a Cisplatin sensitization value of <0.02 μM are marked with “+++.” Compounds with a Cisplatin sensitization value>0.02 μM but <0.2 μM are marked with “++.” Compounds with a Cisplatin sensitization value>0.2 μM but <5 μM are marked with “+.”

SMILES | Cisplatin Sensitization Assay
Nc1nn2cc(F)cnc2c1C(=O)Nc1cnccc1N1CCN(C2CCOC2)CC1 (racemic) [I-N-19, (R,S)-2-amino-6-fluoro-N-(4-(4-(tetrahydrofuran-3-yl)piperazin-1-yl)pyridin-3-yl)pyrazolo[1,5-a]pyrimidine-3-carboxamide] | +++ (Cisplatin sensitization value of <0.02 μM)
N#CCc1cnc2c(C(=O)Nc3cnccc3OC3CCCNC3)c(N)nn2c1 (racemic) [I-O-2, (R,S)-2-amino-6-(cyanomethyl)-N-(4-(piperidin-3-yloxy)pyridin-3-yl)pyrazolo[1,5-a]pyrimidine-3-carboxamide] | ++ (Cisplatin sensitization value>0.02 μM but <0.2 μM)
Nc1nn2cc(F)cnc2c1C(=O)Nc1cnccc1OC1CN2CCC1CC2 (racemic) [I-O-6, (R,S)-2-amino-6-fluoro-N-(4-(quinuclidin-3-yloxy)pyridin-3-yl)pyrazolo[1,5-a]pyrimidine-3-carboxamide] | +++ (Cisplatin sensitization value of <0.02 μM)
Nc1nn2cc(F)cnc2c1C(=O)Nc1cnccc1OC1CCOC1 (racemic) [I-O-15, (R,S)-2-amino-6-fluoro-N-(4-((tetrahydrofuran-3-yl)oxy)pyridin-3-yl)pyrazolo[1,5-a]pyrimidine-3-carboxamide] | +++ (Cisplatin sensitization value of <0.02 μM)
N#CCc1cnc2c(C(=O)Nc3cnccc3OC3CCOC3)c(N)nn2c1 (racemic) [I-O-37, (R,S)-2-amino-6-(cyanomethyl)-N-(4-((tetrahydrofuran-3-yl)oxy)pyridin-3-yl)pyrazolo[1,5-a]pyrimidine-3-carboxamide] | +++ (Cisplatin sensitization value of <0.02 μM)
Nc1nn2cc(F)cnc2c1C(=O)Nc1cnccc1O[C@@H]1CN2CCC1CC2 [Compound I-0-10, (S)-2-amino-6-fluoro-N-(4-(quinuclidin-3-yloxy)pyridin-3-yl)pyrazolo[1,5-a]pyrimidine-3-carboxamide] | +++ (Cisplatin sensitization value of <0.02 μM)
Nc1nn2cc(F)cnc2c1C(=O)Nc1cnccc1OC1CCN(C2COC2)CC1 [Compound I-0-11, 2-amino-6-fluoro-N-(4-((1-(oxetan-3-yl)piperidin-4-yl)oxy)pyridin-3-yl)pyrazolo[1,5-a]pyrimidine-3-carboxamide] | +++ (Cisplatin sensitization value of <0.02 μM)
CN1CCC(c2ccncc2NC(=O)c2c(N)nn3cc(F)cnc23)CC1 [I-C-1, 2-amino-6-fluoro-N-(4-(1-methylpiperidin-4-yl)pyridin-3-yl)pyrazolo[1,5-a]pyrimidine-3-carboxamide] | ++ (Cisplatin sensitization value>0.02 μM but <0.2 μM)
Cc1ccncc1NC(=O)c1c(N)nn2cc(Cl)cnc12 [I-C-2, 2-amino-6-chloro-N-(4-methylpyridin-3-yl)pyrazolo[1,5-a]pyrimidine-3-carboxamide] | ++ (Cisplatin sensitization value>0.02 μM but <0.2 μM)
Cc1ccncc1NC(=O)c1c(N)nn2cc(F)cnc12 [I-C-4, 2-amino-6-fluoro-N-(4-methylpyridin-3-yl)pyrazolo[1,5-a]pyrimidine-3-carboxamide] | ++ (Cisplatin sensitization value>0.02 μM but <0.2 μM)
Nc1nn2cc(F)cnc2c1C(=O)Nc1cnccc1-c1ccccc1 [I-C-5, 2-amino-6-fluoro-N-(4-phenylpyridin-3-yl)pyrazolo[1,5-a]pyrimidine-3-carboxamide] | +++ (Cisplatin sensitization value of <0.02 μM)
N#CCc1cnc2c(C(=O)Nc3cnccc3-c3ccccc3)c(N)nn2c1 [I-C-6, 2-amino-6-(cyanomethyl)-N-(4-phenylpyridin-3-yl)pyrazolo[1,5-a]pyrimidine-3-carboxamide] | +++ (Cisplatin sensitization value of <0.02 μM)
Nc1nn2cc(F)cnc2c1C(=O)Nc1cncc2c1CCNC2 [I-C-7, 2-amino-6-fluoro-N-(5,6,7,8-tetrahydro-2,7-naphthyridin-4-yl)pyrazolo[1,5-a]pyrimidine-3-carboxamide] | ++ (Cisplatin sensitization value>0.02 μM but <0.2 μM)
CN1CCc2c(cncc2NC(=O)c2c(N)nn3cc(F)cnc23)C1 [I-C-8, 2-amino-6-fluoro-N-(7-methyl-5,6,7,8-tetrahydro-2,7-naphthyridin-4-yl)pyrazolo[1,5-a]pyrimidine-3-carboxamide] | + (Cisplatin sensitization value>0.2 μM but <5 μM)
C[N+]1([O-])CCc2c(cncc2NC(=O)c2c(N)nn3cc(F)cnc23)C1 (stereo not drawn) [I-C-9, 5-(2-amino-6-fluoropyrazolo[1,5-a]pyrimidine-3-carboxamido)-2-methyl-1,2,3,4-tetrahydro-2,7-naphthyridine 2-oxide] | + (Cisplatin sensitization value>0.2 μM but <5 μM)
Nc1nn2cc(F)cnc2c1C(=O)Nc1cnccc1C1CCN(C2COC2)CC1 [I-C-10, 2-amino-6-fluoro-N-(4-(1-(oxetan-3-yl)piperidin-4-yl)pyridin-3-yl)pyrazolo[1,5-a]pyrimidine-3-carboxamide] | +++ (Cisplatin sensitization value of <0.02 μM)
Nc1nn2cc(Cl)cnc2c1C(=O)Nc1cnccc1C1CCN(C2COC2)CC1 [I-C-11, 2-amino-6-chloro-N-(4-(1-(oxetan-3-yl)piperidin-4-yl)pyridin-3-yl)pyrazolo[1,5-a]pyrimidine-3-carboxamide] | +++ (Cisplatin sensitization value of <0.02 μM)
Nc1nn2cc(F)cnc2c1C(=O)Nc1cncc(F)c1C1=CCN(C2COC2)CC1 [I-C-12, 2-amino-6-fluoro-N-(5-fluoro-1′-(oxetan-3-yl)-1′,2′,3′,6′-tetrahydro-[4,4′-bipyridin]-3-yl)pyrazolo[1,5-a]pyrimidine-3-carboxamide] | +++ (Cisplatin sensitization value of <0.02 μM)
Nc1nn2cc(F)cnc2c1C(=O)Nc1cncc(F)c1C1CCN(C2COC2)CC1 [I-C-13, 2-amino-6-fluoro-N-(5-fluoro-4-(1-(oxetan-3-yl)piperidin-4-yl)pyridin-3-yl)pyrazolo[1,5-a]pyrimidine-3-carboxamide] | ++ (Cisplatin sensitization value>0.02 μM but <0.2 μM)
CN1CCC(c2c(F)cncc2NC(=O)c2c(N)nn3cc(F)cnc23)CC1 [I-C-14, 2-amino-6-fluoro-N-(5-fluoro-4-(1-methylpiperidin-4-yl)pyridin-3-yl)pyrazolo[1,5-a]pyrimidine-3-carboxamide] | + (Cisplatin sensitization value>0.2 μM but <5 μM)
Nc1nn2cc(F)cnc2c1C(=O)Nc1cnccc1-c1cccnc1 [I-C-15, N-([3,4′-bipyridin]-3′-yl)-2-amino-6-fluoropyrazolo[1,5-a]pyrimidine-3-carboxamide] | ++ (Cisplatin sensitization value>0.02 μM but <0.2 μM)
CN1CCC(C(=O)N2CCC(c3ccncc3NC(=O)c3c(N)nn4cc(F)cnc34)CC2)CC1 [I-C-16, 2-amino-6-fluoro-N-(4-(1-(1-methylpiperidine-4-carbonyl)piperidin-4-yl)pyridin-3-yl)pyrazolo[1,5-a]pyrimidine-3-carboxamide] | + (Cisplatin sensitization value>0.2 μM but <5 μM)
CN1CCN(C(=O)N2CCC(c3ccncc3NC(=O)c3c(N)nn4cc(F)cnc34)CC2)CC1 [I-C-17, 2-amino-6-fluoro-N-(4-(1-(4-methylpiperazine-1-carbonyl)piperidin-4-yl)pyridin-3-yl)pyrazolo[1,5-a]pyrimidine-3-carboxamide] | ++ (Cisplatin sensitization value>0.02 μM but <0.2 μM)
Nc1nn2cc(F)cnc2c1C(=O)Nc1cnccc1C1CCN(C(=O)C23CCN(CC2)CC3)CC1 [I-C-18, 2-amino-6-fluoro-N-(4-(1-(quinuclidine-4-carbonyl)piperidin-4-yl)pyridin-3-yl)pyrazolo[1,5-a]pyrimidine-3-carboxamide] | + (Cisplatin sensitization value>0.2 μM but <5 μM)
CN1CCN(C(=O)c2ccc(-c3ccncc3NC(=O)c3c(N)nn4cc(F)cnc34)cn2)CC1 [I-C-19, 2-amino-6-fluoro-N-(6-(4-methylpiperazine-1-carbonyl)-[3,4′-bipyridin]-3′-yl)pyrazolo[1,5-a]pyrimidine-3-carboxamide] | ++ (Cisplatin sensitization value>0.02 μM but <0.2 μM)
Cc1ncccc1-c1ccncc1NC(=O)c1c(N)nn2cc(F)cnc12 [I-C-20, 2-amino-6-fluoro-N-(2-methyl-[3,4′-bipyridin]-3′-yl)pyrazolo[1,5-a]pyrimidine-3-carboxamide] | +++ (Cisplatin sensitization value of <0.02 μM)
CN1CCN(c2ccc(-c3ccncc3NC(=O)c3c(N)nn4cc(F)cnc34)cn2)CC1 [I-C-21, 2-amino-6-fluoro-N-(6-(4-methylpiperazin-1-yl)-[3,4′-bipyridin]-3′-yl)pyrazolo[1,5-a]pyrimidine-3-carboxamide] | +++ (Cisplatin sensitization value of <0.02 μM)
Cc1ccc(-c2ccncc2NC(=O)c2c(N)nn3cc(F)cnc23)cn1 [I-C-22, 2-amino-6-fluoro-N-(6-methyl-[3,4′-bipyridin]-3′-yl)pyrazolo[1,5-a]pyrimidine-3-carboxamide] | ++ (Cisplatin sensitization value>0.02 μM but <0.2 μM)
CN1CCC(c2ccncc2NC(=O)c2c(N)nn3cc(C(C)(C)C#N)cnc23)CC1 [I-C-23, 2-amino-6-(2-cyanopropan-2-yl)-N-(4-(1-methylpiperidin-4-yl)pyridin-3-yl)pyrazolo[1,5-a]pyrimidine-3-carboxamide] | + (Cisplatin sensitization value>0.2 μM but <5 μM)
Nc1nn2cc(F)cnc2c1C(=O)Nc1cnccc1-c1ccncc1 [I-C-24, N-([4,4′-bipyridin]-3-yl)-2-amino-6-fluoropyrazolo[1,5-a]pyrimidine-3-carboxamide] | +++ (Cisplatin sensitization value of <0.02 μM)
